We go through 12 compounds from US20040059104A1, “Nucleotide mimics and their prodrugs” (priority 2002, published 2004).

Like-named read-outs stand apart in the source and are kept apart here. Where only a bound is given, the exact number is not on record here.

As usually defined, the Ki is the dissociation constant of the complex between target and ligand, obtained from inhibition or displacement. What is called IC50 is the concentration that gives 50% inhibition. One may read the half-life as the time needed for the level to fall by half in the phase considered. In general, MIC refers to the smallest concentration in the dilution series that meets the test's criterion for growth inhibition.

Data set [1] deals with purified bovine brain tubulin. Briefly: Assay for inhibition of microtubule (tubulin) polymerization. It counts as biochemical. The conditions noted are these: 50 μM GTP, 37° C.; read-out: Ki, Inhibition of Tubulin Polymerization by Nucleotide Mimics. As for the experimental part:
The assays employed to measure the polymerization and stability of tubulin microtubule protein are described below. The effectiveness of the compounds of the present invention as modulators of tubulin microtubule protein dynamics was measured in the following assays.
This assay was used to measure the ability of the nucleotide mimics of the present invention to inhibit the polymerization of tubulin subunits and subsequent assembly of microtubule protein. This assay is a modification of a published procedure (Xu et al., “Interaction of Tubulin with Guanosine 5′-O-(1-Thiotriphosphate) Diastereoisomers: Specificity of the α-Phosphate Binding Region”, Biochemistry 1994, 33, 11884-90).
The compounds were tested at various concentrations up to 500 μM final concentration. Polymerization assays were performed in 96-well microplates (Costar), in assay buffer containing GTP and tubulin. The nucleotide mimics of the present invention were diluted in buffer and pipetted into the plate wells. Samples were kept on ice until the reactions were initiated by moving the plates into a 37° C. incubator. The polymerization reaction was allowed to proceed at 37° C. for 30 minutes, monitored at 340 nm using a microplate spectrophotometer with a temperature-controlled incubator (Molecular Devices, Sunnyvale, Calif.). Initial velocity data (mA min^−1) was collected and fit to the equations below.
The percentage of inhibition was calculated according to the following equation:
% Inhibition=[1−(mA min^−1 in test reaction−mA min^−1 in blank)/(mA min^−1 in control reaction−mA min^−1 in blank)]×100.
Each inhibitor was titrated over an appropriate range of concentrations, and inhibition constants were determined using the following equations:
v=Vm[S]/(Km(1+[I]/Ki)+[S])

The target of data set [2] is Ribonucleotide Reductase (RNR R1/R2) (Escherichia coli, UniProt P00452). Briefly: Ribonucleotide Reductase inhibition assay (coupled NADPH oxidation). Format: biochemical. The protocol: The assays employed to measure inhibition of Ribonucleotide Reductase (RNR) activity are described below. The effectiveness of the compounds of the present invention as inhibitors of RNR enzyme was determined using the following assays.
This assay was used to measure the ability of the nucleotide mimics of the present invention to inhibit the enzymatic reaction catalyzed by RNR enzyme. In the reduction of cytidine 5′-diphosphate (CDP) to 2′-deoxycytidine 5′-diphosphate (dCDP), stoichiometric amounts of oxidized thioredoxin are formed. This protein is reduced by NADPH in a reaction catalyzed by thioredoxin reductase. By coupling the two reactions, RNR activity was measured by spectrophotometric determination of NADPH oxidation at 340 nm using a UV/VIS spectrophotometer. […]
The standard RNR assay is performed in a 96-well plate (Corning). […] The oxidation of NADPH was monitored at 340 nm on a microplate spectrophotometer (Molecular Devices Corp, Sunnyvale, Calif.). […]
The percentage of inhibition was calculated according to the following equation: […]
Each inhibitor was titrated over an appropriate range of concentrations, and IC50 values were determined using the equation: […]

A short description of data set [3]: in vitro. The settings on record: bovine, serum, Half-Life, Serum Half-Lives of Gemcitibine Diphosphate Mimics and Their Prodrugs.
In data set [4] the test system is Staphylococcus aureus. Briefly: Antimicrobial assay, minimal inhibitory concentration. It counts as cell-based. The settings on record: for MIC: Staphylococcus aureus, read-out: S. aureus MIC. The method, boiled down: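 E. coli and S. aureus grown overnight at 37° C were first screened by disc diffusion on Nutrient Broth agar lawns. MIC was then read after overnight incubation at 37° C as the lowest compound concentration giving no increase in absorbance at 600 nm.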

Data set [5] deals with Escherichia coli. The description is as above. Format: cell-based.
Data set [6] has as its system HIV-1RF. Briefly: Anti-HIV-1 cytoprotection assay in CEM-SS cells. The conditions noted are these: CEM-SS cells infected with HIV-1RF, MOI approximately 0.01, 6 days, MTS; read-out: CEM-SS IC50 (Anti-HIV Screening). Format: cell-based. The protocol:
(§1) ollowing paper: Structure-Activity and Cross-Resistance unodeficiency Virus Type 1-Specific ckheit, Jr. et al., Antimicrobial Agents and s were evaluated in CEM-SS cell cultures V-1RF at an MOI of approximately 0.01. At he soluble tetrazolium-based dye MTS viability and quantify compound toxicity of metabolically active cells to yield a soluble analysis of cell viability and compound
Efficacy Evaluation in CEM-SS Cells Anti-HIV-1 Cytoprotection Assay
Cell Preparation—CEM-SS cells were passaged in T-75 flasks prior to use in the antiviral assay. On the day preceding the assay, the cells were split 1:2 to assure they were in an exponential growth phase at the time of infection. Total cell and viability quantification was performed using a hemacytometer and trypan blue exclusion. Cell viability was greater than 95% for the cells to be utilized in the assay. The cells were resuspended at 5×10^4 cells/ml in tissue culture medium and added to the drug-containing microtiter plates in a volume of 50 μl.
Virus Preparation—The virus used for these tests was the lymphocytropic virus strain HIV-1RF. This virus was obtained from the NIH AIDS Research and Reference Reagent Program and was grown in CEM-SS cells for the production of stock virus pools. For each assay, a pre-titered aliquot of virus was removed from the freezer (−80° C.) and allowed to thaw slowly to room temperature in a biological safety cabinet. The virus was resuspended and diluted into tissue culture medium such that the amount of virus added to each well in a volume of 50 μl was the amount determined to give between 85 to 95% cell killing at 6 days post-infection.
(§2) At assay termination, the assay plates were stained with the soluble tetrazolium-based dye MTS (CellTiter Reagent Promega) to determine cell viability and quantify compound toxicity. MTS is metabolized by the mitochondrial enzymes of metabolically active cells to yield a soluble formazan product, allowing the rapid quantitative analysis of cell viability and compound cytotoxicity. […] At termination of the assay, 20 μL of MTS reagent was added per well. The microtiter plates were then incubated 4-6 hrs at 37° C. for the HIV cytoprotection assay; the incubation intervals were chosen based on empirically determined times for optimal dye reduction. Adhesive plate sealers were used in place of the lids, the sealed plate was inverted several times to mix the soluble formazan product and the plate was read spectrophotometrically at 490 nm with a Molecular Devices Vmax plate reader.

Data set [7] in a line: in vitro. The settings on record: human.
For data set [8], the system named is CEM-SS cells. The experiment in a line: Compound toxicity in CEM-SS cells (MTS staining). Format: cell-based. The conditions noted are these: read-out: CEM-SS TC50. The protocol:
as §1, §2

The target in data set [9] is HIV reverse transcriptase (RT) (Human immunodeficiency virus type 1 group M subtype B, UniProt P04585). The conditions noted are these: assays using homopolymer templates; background statement; cited from earlier work.
Data set [10] is described as follows: Mammalian cell growth inhibition assay (MTT cytotoxicity). The conditions noted are these: human; CCRF-CEM cells, 72 hr, MTT; read-out: Cytotoxicity IC50 (antiproliferative effect). Format: cell-based, Human. As for the experimental part:
(§3) The assays employed for determining the cytotoxicity of the nucleotide mimics of the present invention to mammalian cells are described below.
(§4) Human CCRF-CEM cells were obtained from American Tissue Culture Collection (ATCC) and grown according to ATCC specifications. […] CEM cells were grown at 37° C. in a 95% humidified environment and 5% CO2 atmosphere.
(§5) MTT is water soluble tetrazolin salt that is converted to an insoluble purple formazan by active mitochondrial dehydrogenases of living cells. […] Conversion of MTT into the insoluble formazan by non-treated control or treated cells was monitored at 540 nm.
(§6) CCRF-CEM cells (3×10^4) were plated in 96-well plates in RPMI media. The next day, cells were incubated with different concentrations (0-200 μM) of the nucleotide mimics of the present invention for 72 hr. Following treatment, MTT (2 mg/ml in PBS) dye was added to each well so that the final concentration was 0.5 mg/ml and then incubated for 4 hr at 37° C. Media and MTT dye were removed without disturbing the cells and 100% DMSO was added to dissolve the precipitate. After a 10 minute incubation at room temperature, the optical density values were measured at 540 nm, using the Spectra Max Plus plate reader. Survival was expressed as the percentage of viable cells in treated samples relative to non-treated control cells.

Data set [11] deals with CCRF-CEM cells. The data set is described as above. Format: cell-based, Human. As for the experimental part:
as §3, §4, §5, §6

Where [12] appears, read: overnight at 37° C., tested 0-200 μg/ml, NA = Not active.
Setting [13] is: value in brackets beside the μg/ml value.

Ribonucleotide Reductase (RNR R1/R2), sequence (P69924 2-376): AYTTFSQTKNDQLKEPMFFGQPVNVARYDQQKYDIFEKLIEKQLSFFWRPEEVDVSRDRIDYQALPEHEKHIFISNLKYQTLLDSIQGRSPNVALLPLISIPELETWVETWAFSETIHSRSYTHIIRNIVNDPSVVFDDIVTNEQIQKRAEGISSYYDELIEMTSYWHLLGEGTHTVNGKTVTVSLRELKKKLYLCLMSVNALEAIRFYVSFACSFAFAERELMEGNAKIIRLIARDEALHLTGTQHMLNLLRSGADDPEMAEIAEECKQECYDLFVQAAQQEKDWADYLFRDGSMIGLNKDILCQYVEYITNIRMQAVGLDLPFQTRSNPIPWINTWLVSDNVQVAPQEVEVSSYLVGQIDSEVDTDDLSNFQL
Ribonucleotide Reductase (RNR R1/R2), sequence (P00452 whole entry): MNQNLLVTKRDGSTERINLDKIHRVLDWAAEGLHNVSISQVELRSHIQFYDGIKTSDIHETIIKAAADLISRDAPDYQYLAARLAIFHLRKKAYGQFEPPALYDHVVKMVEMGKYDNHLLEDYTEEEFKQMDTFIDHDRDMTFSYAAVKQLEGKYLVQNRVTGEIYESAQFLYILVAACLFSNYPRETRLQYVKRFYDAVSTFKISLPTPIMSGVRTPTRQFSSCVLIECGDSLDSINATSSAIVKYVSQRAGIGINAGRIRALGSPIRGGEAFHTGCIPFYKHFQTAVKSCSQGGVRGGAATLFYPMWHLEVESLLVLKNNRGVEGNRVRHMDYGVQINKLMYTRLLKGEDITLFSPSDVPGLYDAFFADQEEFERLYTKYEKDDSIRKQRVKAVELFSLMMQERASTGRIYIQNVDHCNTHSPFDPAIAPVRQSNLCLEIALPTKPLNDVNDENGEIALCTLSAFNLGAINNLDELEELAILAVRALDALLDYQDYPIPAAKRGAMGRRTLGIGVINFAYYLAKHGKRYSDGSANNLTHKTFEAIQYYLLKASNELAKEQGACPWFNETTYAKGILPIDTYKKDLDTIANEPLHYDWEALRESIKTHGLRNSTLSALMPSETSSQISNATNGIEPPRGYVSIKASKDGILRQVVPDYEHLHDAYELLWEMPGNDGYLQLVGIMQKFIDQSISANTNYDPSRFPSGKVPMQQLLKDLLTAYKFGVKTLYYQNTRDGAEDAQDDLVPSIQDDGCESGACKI

`Nc1nc2c(ncn2[C@@H]2O[C@H](COP(=O)(O)OP(=O)(O)O)[C@@H](O)[C@H]2O)c(=O)[nH]1` [Guanosine 5′-diphosphate]: in data set [1], the Ki came to 15.3 µM.
For `Nc1ccn([C@@H]2O[C@H](COP(=O)(O)NP(=O)(O)O)[C@@H](O)C2(F)F)c(=O)n1` [Compound 6, 2′-Deoxy-2′,2′-difluorocytidine 5′-imidodiphosphate], 12.6 µM corresponded to half-maximal inhibition in [2] (IC50). For the same compound, the half-life at 500 μM in [3] was 15 h.
On to `Nc1nc2c(ncn2[C@@H]2O[C@H](COP(=O)(O)NP(=O)(O)O)[C@@H](O)[C@H]2O)c(=O)[nH]1` [Guanosine 5′-imidodiphosphate], for which the Ki in data set [1] was 5.7 µM.
`Nc1ccn([C@@H]2O[C@H](COP(=O)(O)CCP(=O)(O)O)[C@@H](O)C2(F)F)c(=O)n1` [Compound 81, 2′-Deoxy-2′,2′-difluorocytidine 5′-ethylenediphosphonate]: the inhibitory constant (Ki) in [1] was found to be 15.7 µM.
As for “3′-Azido-3′-deoxythymidine 5′-α-P-borano-β,γ-difluoromethylene-γ-O-palmityltriphosphate [Compound 41]”, the entries for the “S. aureus MIC” value in data set [4] (setting [12]) and in data set [4] (setting [13]) were 5 to 10 µg/mL and “(6.5-13) μM”, respectively. The “E. coli MIC” value was 25 to 50 µg/mL in data set [5] (setting [12]) and “(33-66) uM” in [5] (setting [13]). Further, in data set [6], the IC50 is 1.41 µM. Further, the “Half-Life, Cell Extract Half-Lives of AZT 5'-α-P-borano-β,γ-(difluoromethylene) triphosphate Prodrugs” value in data set [7] is greater than 48 h. The CC50 in data set [8] worked out at 12 µM.
On to `BP(=O)(OC[C@@H]1O[C@H](n2cc(C)c(=O)[nH]c2=O)C[C@H]1N=[N+]=[N-])OP(=O)(O)OP(=O)(O)O` (stereo partly drawn) [AZT 5′-α-P-boranotriphosphate], for which the “Ki values, inhibition of HIV reverse transcriptase (RT)” value in [9] is listed as “low nM range”.
As to D4T 5′-α-P-boranotriphosphate, the “Ki values, inhibition of HIV reverse transcriptase (RT)” value in data set [9] is given as “low nM range”.
Consider `Nc1ccn([C@@H]2O[C@H](COP(=O)(O)NP(=O)(O)O)[C@@H](O)/C2=C\F)c(=O)n1` [Compound 3, 2′-Deoxy-(E)-2′-fluoromethylenecytidine 5′-imidodiphosphate], for which the IC50 in [2] (3-minute inactivation, then assay with 1 mM CDP, read-out: IC50, Inhibition of Ribonucleotide Reductase by Nucleotide Mimics) came out at 8.9 µM.
As for `Nc1ccn([C@@H]2O[C@H](CO)[C@@H](O)C2(F)F)c(=O)n1` [Gemcitabine, 2′-deoxy-2′,2′-difluorocytidine, reference compound], the concentration for half-maximal inhibition (IC50) at 72 h in [10] was found to be 0.035 µM.
On to `Nc1ccn([C@@H]2O[C@H](COP(=O)(O)CP(=O)(O)O)[C@@H](O)C2(F)F)c(=O)n1` [Compound 5, 2′-Deoxy-2′,2′-difluorocytidine-5′-methylenediphosphonate], for which the figures for the MIC in data set [4] (setting [12]) and in [4] (setting [13]) were greater than 200 µg/mL and greater than 475 µM, respectively. In addition, in [10], the half-inhibitory concentration (IC50) at 72 h was found to be 4.8 µM. In addition, the half-life at 500 μM in data set [3] is greater than 48 h.
For `Nc1ccn([C@@H]2O[C@H](COP(=O)(O)OP(=O)(O)O)[C@@H](O)C2=CF)c(=O)n1` [2′-Deoxy-2′-fluoromethylenecytidine 5′-diphosphate], the Ki in data set [1] is 19.4 µM.
Turning to `CC(C)(C)C(=O)SCCOP(=O)(CP(=O)(OCCSC(=O)C(C)(C)C)OCC1OC(n2ccc(N)nc2=O)C(F)(F)C1O)OCCSC(=O)C(C)(C)C` (stereo not drawn) [Compound 77, 2′-deoxy-2′,2′-difluorocytidine 5′-tri-O—(S-pivaloyl-2-thioethyl)-α,β-methylenediphosphonate], the 50% inhibitory concentration (IC50) in [11] worked out at 0.1 µM.
